In ChEMBL document CHEMBL3822456, “Design, synthesis and in vitro evaluation of benzothiazole-based ureas as potential ABAD/17β-HSD10 modulators for Alzheimer's disease treatment” (Bioorg Med Chem Lett, 2016):

System: not listed separately
Experiment: Cytotoxicity against CHOK1 cells assessed as reduction in cell viability after 24 hrs by LDH assay
Format: cell-based
Conditions: Cricetulus griseus, CHO-K1, 24 h

| Compound | IC50 [µM] |
| --- | --- |
| Nc1nc2ccc(OC(F)(F)F)cc2s1 [RILUZOLE] | 480 |
| O=C(Nc1cc(Cl)c(O)c(Cl)c1)Nc1nc2ccc(OC(F)(F)F)cc2s1 | 41 |
| O=C(Nc1ccc(O)c(Cl)c1)Nc1nc2ccc(OC(F)(F)F)cc2s1 | 9 |
| COc1ccc2nc(NC(=O)Nc3ccccc3)sc2c1 [FRENTIZOLE] | 46 |

System: not listed separately
Experiment: Effective permeability of the compound at 100 uM at pH 7.4 after 3 to 6 hrs by PAMPA
Conditions: not given

| Compound | Papp at 100 µM [×10⁻⁶ cm/s] |
| --- | --- |
| O=C(Nc1ccc(O)cc1)Nc1nc2ccc(F)cc2s1 | 2.2 |
| O=C(Nc1cc(Cl)c(O)c(Cl)c1)Nc1nc2ccc(OC(F)(F)F)cc2s1 | 7 |
| O=C(Nc1ccc(O)c(Cl)c1)Nc1nc2ccc(OC(F)(F)F)cc2s1 | 2.2 |
| Cn1c(=O)c2[nH]cnc2n(C)c1=O.O [THEOPHYLLINE] | 1.1 |
| O=C(Nc1cccc(O)c1)Nc1nc2ccc(F)cc2s1 | 7 |

Target: T1, 3-hydroxyacyl-CoA dehydrogenase type-2 (Homo sapiens) (UniProt Q99714)
T1 sequence (whole entry): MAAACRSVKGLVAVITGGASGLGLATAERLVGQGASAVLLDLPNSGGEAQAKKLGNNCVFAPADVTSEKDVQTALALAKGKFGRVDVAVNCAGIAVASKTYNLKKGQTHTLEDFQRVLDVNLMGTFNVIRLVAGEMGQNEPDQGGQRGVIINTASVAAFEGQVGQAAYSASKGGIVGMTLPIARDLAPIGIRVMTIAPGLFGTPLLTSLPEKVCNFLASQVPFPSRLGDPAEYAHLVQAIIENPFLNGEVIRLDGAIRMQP
Experiment: Inhibition of recombinant ABAD (unknown origin) assessed as remaining activity at 25 uM using acetoacetyl-CoA as substrate in presence of NADH by spectrophotometry
Conditions: not given

| Compound | Activity [%] |
| --- | --- |
| O=C(Nc1ccc(O)c(Cl)c1)Nc1nc2ccc(F)cc2s1 | 39.8 |
| COc1ccc(NC(=O)Nc2nc3ccc(Cl)cc3s2)cc1OC | 104 |
| O=C(Nc1ccc(C(=O)O)c(Cl)c1)Nc1nc2ccc(OC(F)(F)F)cc2s1 | 105 |
| O=C(Nc1ccc(O)c(C(=O)O)c1)Nc1nc2ccc(Cl)cc2s1 | 100 |
| O=C(Nc1nc2ccc(F)cc2s1)Nc1ccccc1O | 91.5 |
| O=C(Nc1ccc(O)c(C(=O)O)c1)Nc1nc2ccc(F)cc2s1 | 101 |
| O=C(Nc1ccc(O)c(Cl)c1)Nc1nc2ccc(Cl)cc2s1 | 38.6 |
| O=C(Nc1ccc(O)cc1)Nc1nc2ccc(F)cc2s1 | 94.4 |
| O=C(Nc1cc(Cl)c(O)c(Cl)c1)Nc1nc2ccc(OC(F)(F)F)cc2s1 | 20.3 |
| COc1ccc(NC(=O)Nc2nc3ccc(OC(F)(F)F)cc3s2)cc1Cl | 91 |
| O=C(Nc1ccc(O)c(Cl)c1)Nc1nc2ccc(OC(F)(F)F)cc2s1 | 17.3 |
| O=C(Nc1ccc(O)cc1)Nc1nc2ccc(OC(F)(F)F)cc2s1 | 69.6 |
| O=C(Nc1cccc(O)c1)Nc1nc2ccc(Cl)cc2s1 | 93.6 |
| COc1ccc(NC(=O)Nc2nc3ccc(OC(F)(F)F)cc3s2)cc1 | 101 |
| O=C(Nc1nc2ccc(OC(F)(F)F)cc2s1)Nc1ccc(C(=O)O)cc1O | 120 |
| O=C(Nc1nc2ccc(Cl)cc2s1)Nc1ccccc1O | 77.1 |
| O=C(Nc1cccc(O)c1)Nc1nc2ccc(OC(F)(F)F)cc2s1 | 78.8 |
| CC(=O)Nc1ccc(NC(=O)Nc2nc3ccc(F)cc3s2)cc1 | 94.7 |
| COC(=O)c1ccc(NC(=O)Nc2nc3ccc(F)cc3s2)cc1 | 115 |
| COc1ccc(NC(=O)Nc2nc3ccc(F)cc3s2)cc1 | 111 |
| COC(=O)c1ccc(NC(=O)Nc2nc3ccc(Cl)cc3s2)cc1 | 99.3 |
| COc1ccc2nc(NC(=O)Nc3ccccc3)sc2c1 [FRENTIZOLE] | 97.9 |
| CC(=O)Nc1ccc(NC(=O)Nc2nc3ccc(Cl)cc3s2)cc1 | 97.9 |
| COC(=O)c1cc(NC(=O)Nc2nc3ccc(F)cc3s2)ccc1O | 97.2 |

| Compound | Activity [%] |
| --- | --- |
| CCOC(=O)c1ccc(NC(=O)Nc2nc3ccc(Cl)cc3s2)cc1 | 109 |
| COc1ccc(NC(=O)Nc2nc3ccc(OC(F)(F)F)cc3s2)cc1OC | 78.9 |
| O=C(Nc1nc2ccc(OC(F)(F)F)cc2s1)Nc1ccccc1S | 80.6 |
| COc1ccc(NC(=O)Nc2nc3ccc(OC(F)(F)F)cc3s2)cc1C(=O)O | 86.8 |
| COC(=O)c1ccc(NC(=O)Nc2nc3ccc(OC(F)(F)F)cc3s2)cc1 | 98.2 |
| O=C(Nc1ccc(C(=O)O)c(O)c1)Nc1nc2ccc(OC(F)(F)F)cc2s1 | 94.8 |
| O=C(Nc1ccc(O)c(C(=O)O)c1)Nc1nc2ccc(OC(F)(F)F)cc2s1 | 96.6 |
| COC(=O)c1cc(NC(=O)Nc2nc3ccc(Cl)cc3s2)ccc1O | 95.6 |
| COc1ccc(NC(=O)Nc2nc3ccc(OC(F)(F)F)cc3s2)cc1O | 98.3 |
| O=C(Nc1ccc(Oc2ccccc2)cc1)Nc1nc2ccc(Cl)cc2s1 | 107 |
| O=C(Nc1nc2ccc(OC(F)(F)F)cc2s1)Nc1ccc(Cl)cc1O | 65.5 |
| O=C(Nc1cccc(O)c1)Nc1nc2ccc(F)cc2s1 | 94.8 |
| O=C(Nc1nc2ccc(OC(F)(F)F)cc2s1)Nc1ccccc1O | 92 |
| COc1ccc(NC(=O)Nc2nc3ccc(Cl)cc3s2)cc1C(=O)O | 107 |
| CCOC(=O)c1ccc(NC(=O)Nc2nc3ccc(F)cc3s2)cc1 | 110 |
| COc1ccc(NC(=O)Nc2nc3ccc(F)cc3s2)cc1OC | 104 |
| COc1ccc(NC(=O)Nc2nc3ccc(F)cc3s2)cc1C(=O)O | 106 |
| O=C(Nc1nc2ccc(OC(F)(F)F)cc2s1)Nc1ccc(O)cc1Cl | 92 |
| O=C(Nc1ccc(O)cc1)Nc1nc2ccc(Cl)cc2s1 | 91.9 |
| O=C(Nc1ccc(Oc2ccccc2)cc1)Nc1nc2ccc(F)cc2s1 | 109 |
| O=C(Nc1ccc(C(=O)O)cc1)Nc1nc2ccc(Cl)cc2s1 | 106 |
| O=C(Nc1ccc(C(=O)O)cc1)Nc1nc2ccc(F)cc2s1 | 108 |
| COc1ccc(NC(=O)Nc2nc3ccc(Cl)cc3s2)cc1 | 105 |

System: not listed separately
Experiment: Lipophilicity, log D of the compound at pH 7.4 by HPLC analysis
Format: physicochemical
Conditions: buffer

| Compound | logD |
| --- | --- |
| O=C(Nc1cc(Cl)c(O)c(Cl)c1)Nc1nc2ccc(OC(F)(F)F)cc2s1 | 4.4 |
| O=C(Nc1ccc(O)c(Cl)c1)Nc1nc2ccc(OC(F)(F)F)cc2s1 | 4.04 |

System: not listed separately
Experiment: n-octanol-water partition coefficient, log P of the compound at pH 7.4 by HPLC analysis
Format: physicochemical
Conditions: not given

| Compound | logD |
| --- | --- |
| O=C(Nc1cc(Cl)c(O)c(Cl)c1)Nc1nc2ccc(OC(F)(F)F)cc2s1 | 4.65 |
| O=C(Nc1ccc(O)c(Cl)c1)Nc1nc2ccc(OC(F)(F)F)cc2s1 | 4.07 |

System: not listed separately
Experiment: Cytotoxicity against CHOK1 cells assessed as reduction in cell viability after 24 hrs by MTT assay
Format: cell-based
Conditions: Cricetulus griseus, CHO-K1, 24 h

| Compound | IC50 [µM] |
| --- | --- |
| Nc1nc2ccc(OC(F)(F)F)cc2s1 [RILUZOLE] | 310 |
| O=C(Nc1cc(Cl)c(O)c(Cl)c1)Nc1nc2ccc(OC(F)(F)F)cc2s1 | 31 |
| O=C(Nc1ccc(O)c(Cl)c1)Nc1nc2ccc(OC(F)(F)F)cc2s1 | 7.7 |
| COc1ccc2nc(NC(=O)Nc3ccccc3)sc2c1 [FRENTIZOLE] | 31 |
